{"source": "patent US20050064382A1", "about": "“Method of prevention of lysosomal leakage in eukaryotic cells by using 6-methyluracil based water-soluble compounds and method of producing thereof” (priority 2002, published 2005)", "key": {"Drosophila": {"tested_on": "Drosophila", "experiment": "Sterol-deficit diet and both drugs: frequency of X-chromosomes loss in late oocytes of Drosophila", "assay_type": "in vivo", "from_the_text": "The classic genetic model was used, based on the well-known method: the frequency of mutations in Drosophila (fruit flies) caused by X-rays. It is known that the frequency of these mutations can be increased by adding to the food of females certain membrane destabilizers (we used Polyene Antibiotics—Amphotericin B), or by the use of a special diet. Like all insects, Drosophila obtain all of their sterols from food (yeast for Drosophila). A special diet rich with Nistatin (Polyene antibiotic) resistant yeast was used.\nThe frequency of the loss of x-chromosomes (males excluded) was measured after crossing with the […]. Females were given a dose of 1000 Roentgens 5 days before being given the food additive or “special diet”.\nInfluence of sterol-deficit diet and both drugs on the frequency of X-chromosomes loss in late oocytes of Drosophila. Groups 1-4 received yeast of wild type, groups 5,6 (diet) received nistatin resistant yeasts meaning groups 5,6 had abnormal sterols in membranes: […]"}, "Shelf life": {"experiment": "Shelf life", "assay_type": "physicochemical", "conditions": "ambient temperatures"}, "[1]": {"tested_on": "ATT-20 cells (anterior lobe of the pituitary gland, corticotrophs)", "experiment": "Storage of ATT-20 cells at low temperature, viability by well bottom coverage", "assay_type": "cell-based", "conditions": "10% Glycerol", "method": "(§1) The goal of the study was to assess the influence of Glucural on cell recovery of different mammalian cells suspended in various cryo-protectors. A single layer of the rat thyroid-derived cell line FRTL-5 was grown in VPF-12 medium containing 10% calf serum (C.S.) in Petri dishes (10 cm) stored in an environment of 5% CO2, 100% humidity and at 37° C. Cell coverage on the Petri dish bottom reached 80-90% over 6-8 days. A single-layer cell culture of the cell line from the anterior lobe of the pituitary gland (corticotrophs) of ATT-20 was grown in similar fashion but in D-MEM medium containing 10% C.S.\n(§2) After exposure, cell suspensions were melted quickly in aliquots with cell suspension equal to 0.2 or 0.4 ml per well. The growing period varied depending on conditions of cell storage. All trials were performed in duplicate. Cell viability was estimated by the percentage of the well bottom covered by cells.\n(§3) The same method was used here as in tests with MEL cells. Cryo-protectors used were not optimal for FRTL-5 and ATT-20 cells. Conditions of freezing were not optimal in assays # 1, 5 and 6."}, "Intact MEL cells": {"tested_on": "Intact MEL cells", "experiment": "Cell toxicity of Glucural in intact conditions: growth of MEL", "assay_type": "cell-based, mouse", "conditions": "for number of cells per ml, Regular conditions: 24 hours"}, "MEL cells [2]": {"tested_on": "MEL cells", "experiment": "Cell recovery after short-term and long-term storage at −135° C.", "assay_type": "cell-based, mouse", "conditions": "for numbers of cells per ml, Short-Term Storage: 3 days at −135° C.; for numbers of cells per ml, Long-Term Storage: six weeks at −135° C.", "method": "The cells were then brought to −135° C. over a two-hour period, and stored at this temperature for 3 days (short term) or six weeks (long term). The cells were then thawed quickly by incubation at 37° C., washed twice with growing medium, re-suspended in 5 ml and incubated at 37° C. for 24 hours. The numbers of cells per ml. is x 10^4, two different assays. […]"}, "[3]": {"tested_on": "HUCVEC exposed to human TNF-alpha", "experiment": "HUCVEC Assays 4-6: exposure to human TNF-alpha, trypan-blue test", "assay_type": "cell-based", "conditions": "Glucural 500 mkg/ml", "method": "To test for cell damage, HUCVEC were exposed for period of 6 to 24 hours to the human TNF-alpha. The trypan-blue test was used. After exposure, mono-layers were removed by trypsin treatment. Results were estimated based on the percentage of colored dead cells in the mono-layer."}, "mice": {"tested_on": "mice", "experiment": "Toxicity LD50", "assay_type": "in vivo"}, "[4]": {"tested_on": "rat thyroid-derived cell line FRTL-5", "experiment": "Storage of FRTL-5 cells at low temperature, viability by well bottom coverage", "assay_type": "cell-based", "method": "as §1, §2, §3"}, "MEL cells [5]": {"tested_on": "MEL cells", "experiment": "Mild damage: cells damaged by one freeze/thaw cycle", "assay_type": "cell-based, mouse", "conditions": "24 hours", "method": "Mild Damage: Influence of Glucural on cells damaged by one-freeze/thaw cycle. Cells were treated exactly as above except that they were subjected to one freeze/thaw cycle (in the absence of cryo-protector) prior to incubation at 37° C. for 24 hours."}}}
{"substance": "complex of 2,4-dihydroxy-6-methylpyrimidine with N-methyl-D-glucamine [Glucural]", "values": [{"measurement": "Protective Effect of Glucural, %", "setting": "Drosophila; Amphotericin B/Glucural vs Amphotericin B", "result": 26, "unit": "%"}, {"measurement": "Frequency of X-Chromosomes loss, %", "setting": "Drosophila; Diet (nistatin resistant yeasts)", "result": "4.1 ± 0.33", "unit": "%"}, {"measurement": "Protective Effect of Glucural, %", "setting": "Drosophila; Diet/Glucural vs Diet", "result": 27, "unit": "%"}, {"measurement": "Protective Effect of Glucural, %", "setting": "Drosophila; Glucural vs Control", "result": 50, "unit": "%"}, {"measurement": "Frequency of X-Chromosomes loss, %", "setting": "Drosophila; yeast of wild type", "result": "0.9 ± 0.14", "unit": "%"}, {"measurement": "shelf life", "setting": "Shelf life", "result": "more than 10 years"}, {"measurement": "Percentage of well bottom covered by cells", "setting": "[1]; #4 AtT-20 (3 days), −190° C., Glucural 50 mg/ml", "result": "50-60%"}, {"measurement": "Percentage of well bottom covered by cells", "setting": "[1]; #4 AtT-20 (3 days), −190° C., Glucural 100 mg/ml", "result": "80-90%"}, {"measurement": "Percentage of well bottom covered by cells", "setting": "[1]; #5 AtT-20 (44 days), −70° C., Glucural 100 mg/ml", "result": "40-50%"}, {"measurement": "Percentage of well bottom covered by cells", "setting": "[1]; #5 AtT-20 (44 days), −70° C., Glucural 200 mg/ml", "result": "30-40%"}, {"measurement": "Percentage of well bottom covered by cells", "setting": "[1]; #6 AtT-20 (46 days), −70° C., additional melting freezing, Glucural 100 mg/ml", "result": "20-30%"}, {"measurement": "Percentage of well bottom covered by cells", "setting": "[1]; #6 AtT-20 (46 days), −70° C., additional melting freezing, Glucural 200 mg/ml", "result": "10-20%"}, {"measurement": "number of cells per ml, Regular conditions", "setting": "Intact MEL cells; Glucural 25 mkg/ml", "result": "67 ± 1 x 10^4"}, {"measurement": "number of cells per ml, Regular conditions", "setting": "Intact MEL cells; Glucural 50 mkg/ml", "result": "68 ± 1 x 10^4"}, {"measurement": "number of cells per ml, Regular conditions", "setting": "Intact MEL cells; Glucural 100 mkg/ml", "result": "71 ± 2 x 10^4"}, {"measurement": "number of cells per ml, Regular conditions", "setting": "Intact MEL cells; Glucural 200 mkg/ml", "result": "58 ± 3 x 10^4"}, {"measurement": "number of cells per ml, Regular conditions", "setting": "Intact MEL cells; Glucural 400 mkg/ml", "result": "69 ± 5 x 10^4"}, {"measurement": "influence on cells in regular conditions", "setting": "Intact MEL cells; Glucural from 25 to 400 mkg/ml", "result": "no influence"}, {"measurement": "effect during short-term storage", "setting": "MEL cells [2]", "result": "little or no effect"}, {"measurement": "numbers of cells per ml, Short-Term Storage", "setting": "MEL cells [2]; Glucural 10 mkg/ml", "result": "34 ± 4 x 10^4"}, {"measurement": "numbers of cells per ml, Long-Term Storage", "setting": "MEL cells [2]; Glucural 10 mkg/ml", "result": "122 ± 8 x 10^4"}, {"measurement": "numbers of cells per ml, Short-Term Storage", "setting": "MEL cells [2]; Glucural 25 mkg/ml", "result": "38 ± 2 x 10^4"}, {"measurement": "numbers of cells per ml, Long-Term Storage", "setting": "MEL cells [2]; Glucural 25 mkg/ml", "result": "167 ± 3 x 10^4"}, {"measurement": "numbers of cells per ml, Short-Term Storage", "setting": "MEL cells [2]; Glucural 50 mkg/ml", "result": "33 ± 2 x 10^4"}, {"measurement": "numbers of cells per ml, Long-Term Storage", "setting": "MEL cells [2]; Glucural 50 mkg/ml", "result": "200 ± 12 x 10^4"}, {"measurement": "numbers of cells per ml, Short-Term Storage", "setting": "MEL cells [2]; Glucural 100 mkg/ml", "result": "37 ± 2 x 10^4"}, {"measurement": "numbers of cells per ml, Long-Term Storage", "setting": "MEL cells [2]; Glucural 100 mkg/ml", "result": "169 ± 15 x 10^4"}, {"measurement": "numbers of cells per ml, Short-Term Storage", "setting": "MEL cells [2]; Glucural 200 mkg/ml", "result": "56 ± 5 x 10^4"}, {"measurement": "numbers of cells per ml, Long-Term Storage", "setting": "MEL cells [2]; Glucural 200 mkg/ml", "result": "155 ± 14 x 10^4"}, {"measurement": "increase of cell survival rates during long-term storage", "setting": "MEL cells [2]; optimal concentration of about 50 mkg/ml", "result": "over 3 times"}, {"measurement": "Percent of dead cells in mono-layer", "setting": "[3]; Assay 4, 24 hours, TNF-alpha 20 ng/ml", "result": "10.3 ± 1.3", "unit": "%"}, {"measurement": "Percent of dead cells in mono-layer", "setting": "[3]; Assay 4, 24 hours, no TNF-alpha", "result": "4.4 ± 0.4", "unit": "%"}, {"measurement": "Percent of dead cells in mono-layer", "setting": "[3]; Assay 5, 8 hours, TNF-alpha 10 ng/ml", "result": "4.1 ± 0.4", "unit": "%"}, {"measurement": "Percent of dead cells in mono-layer", "setting": "[3]; Assay 5, 8 hours, TNF-alpha 20 ng/ml", "result": "5.4 ± 0.4", "unit": "%"}, {"measurement": "Percent of dead cells in mono-layer", "setting": "[3]; Assay 5, 8 hours, no TNF-alpha", "result": "5.7 ± 0.5", "unit": "%"}, {"measurement": "Percent of dead cells in mono-layer", "setting": "[3]; Assay 6, 6 hours, TNF-alpha 40 ng/ml", "result": "10.9 ± 3.4", "unit": "%"}, {"measurement": "Percent of dead cells in mono-layer", "setting": "[3]; Assay 6, 6 hours, no TNF-alpha", "result": "13.8 ± 2.7", "unit": "%"}, {"measurement": "LD50 equivalent for a 50-kg person", "setting": "mice; extrapolated from mice", "result": 100, "unit": "g"}, {"measurement": "LD50", "setting": "mice; mice", "result": "about 2 g/kg"}, {"measurement": "Percentage of well bottom covered by cells", "setting": "[4]; #1 FRTL-5 (4 days), 10% Glycerol, −70° C., Glucural 100 mg/ml", "result": "90-100%"}, {"measurement": "Percentage of well bottom covered by cells", "setting": "[4]; #1 FRTL-5 (4 days), 10% Glycerol, −70° C., Glucural 200 mg/ml", "result": "90-100%"}, {"measurement": "Percentage of well bottom covered by cells", "setting": "[4]; #2 FRTL-5 (36 days), 10% Glycerol, −190° C., Glucural 100 mg/ml", "result": "10-15%"}, {"measurement": "Percentage of well bottom covered by cells", "setting": "[4]; #3 FRTL-5 (4 days), 50% C.S., 0° C., 30 min, Glucural 100 mg/ml", "result": "60-70%"}, {"measurement": "Percentage of well bottom covered by cells", "setting": "[4]; #3 FRTL-5 (4 days), 50% C.S., 0° C., 30 min, Glucural 200 mg/ml", "result": "60-70%"}, {"measurement": "number of cells per ml, Mild damage", "setting": "MEL cells [5]; Glucural 25 mkg/ml", "result": "36 x 10^4"}, {"measurement": "number of cells per ml, Mild damage", "setting": "MEL cells [5]; Glucural 50 mkg/ml", "result": "53 ± 5 x 10^4"}, {"measurement": "number of cells per ml, Mild damage", "setting": "MEL cells [5]; Glucural 100 mkg/ml", "result": "40 ± 1 x 10^4"}, {"measurement": "number of cells per ml, Mild damage", "setting": "MEL cells [5]; Glucural 200 mkg/ml", "result": "45 ± 0 x 10^4"}, {"measurement": "number of cells per ml, Mild damage", "setting": "MEL cells [5]; Glucural 400 mkg/ml", "result": "31 ± 1 x 10^4"}]}
